The results in this text go back to ChEMBL document CHEMBL1157329, “Granulatamides A and B, cytotoxic tryptamine derivatives from the soft coral Eunicella granulata” (2006).

One may read the GI50 as the concentration giving 50% growth inhibition.

Common to all, as to format: functional
Experiment [1] is described as follows: Cytotoxicity against human HMEC1 cells by SRB assay. Particulars: HMEC-1. In general terms: In SRB staining, fixed cells bind dye roughly in proportion to their protein.
Experiment [2] can be described thus: Cytotoxicity against human IGROV cells by SRB assay.
A further experiment deals with SK-MEL-28. Briefly: Cytotoxicity against human SK-MEL-28 cells by SRB assay.
The subject of the next experiment is HT-29. Briefly: Cytotoxicity against human HT29 cells by SRB assay.
For the next experiment, the system named is K562. Briefly: Cytotoxicity against human K562 cells by SRB assay.
A further experiment has as its system A549. Briefly: Cytotoxicity against human A549 cells by SRB assay.
Another experiment relates to DU-145. Briefly: Cytotoxicity against human DU145 cells by SRB assay.
A further experiment relates to PANC-1. Briefly: Cytotoxicity against human PANC1 cells by SRB assay.
Another experiment has as its system SK-BR-3. Briefly: Cytotoxicity against human SK-BR3 cells by SRB assay.
The next experiment has as its system SK-OV-3. Briefly: Cytotoxicity against human SK-OV-3 cells by SRB assay.
Experiment [3] concerns LoVo. Briefly: Cytotoxicity against human doxorubicin-resistant LOVO cells by SRB assay.
The subject of another experiment is LNCaP. Briefly: Cytotoxicity against human LNcaP cells by SRB assay.
The nature of experiment [4]: Cytotoxicity against human ecteinascidin-743-resistant IGROV-ET cells by SRB assay.
Experiment [5] deals with LoVo. Briefly: Cytotoxicity against human LOVO cells by SRB assay.
Experiment [6] concerns HeLa. Briefly: Cytotoxicity against human HeLa cells by SRB assay.
Experiment [7] relates to HeLa. Briefly: Cytotoxicity against human aplidin-resistant HeLa cells by SRB assay.

Regarding `CCCCCCCCC/C(C)=C\C(=O)NCCc1c[nH]c2ccccc12` [GRANULATAMIDE A], the GI50 worked out at 6.2 µM in experiment [1]; 6.7 µM in [2]; 3.9 µM with SK-MEL-28; 2.2 µM in the experiment with HT-29; 6.8 µM in the experiment on K562; 6.7 µM with A549. The GI50 with DU-145 stood at 1.7 µM; in the experiment on PANC-1, 10.4 µM; in the experiment on SK-BR-3 it was 2.7 µM; in the experiment with SK-OV-3, 11.6 µM; in the experiment on LoVo [3] it was 12 µM; with LNCaP, 4.7 µM. Moreover, the 50% growth inhibitory concentration (GI50) in experiment [4] was found to be 12.7 µM; in the experiment with LoVo [5], 10.5 µM.

Regarding `CCCCCCC/C(C)=C/C(C)=C\C(=O)NCCc1c[nH]c2ccccc12` [GRANULATAMIDE B], the concentration for 50% growth inhibition (GI50) is 8.2 µM in experiment [2]; 10.6 µM with SK-MEL-28; 13.8 µM with HT-29; 4.3 µM in the experiment on K562; 8.9 µM with A549; 7.7 µM with DU-145. Further, the GI50 in the experiment on PANC-1 is 6.5 µM; in the experiment on SK-BR-3, 6 µM; with HeLa [6], 9.7 µM; in the experiment on LoVo [3] it was 10 µM; in the experiment on LNCaP, 3.5 µM; in [4], 6.7 µM. The GI50 with LoVo [5] came out at 8.6 µM; with HeLa [7], 9 µM.
